# Test results published in PubChem BioAssay AID1902 (Broad Institute, 2009).
# Calls of active or inactive are those of the source.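 Rule for the calls: active = EC50 no more than a set limit of log units above the highest dose; inactive = the rest.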
# Target: S. pyogenes SKKanGAS, kanamycin survival, BacTiterGlo, 6 h
# Assay: S. pyogenes SKKanGAS kanamycin growth inhibitors – SKKanGAS strain, luminescence, dose confirmation, streptokinase promoter inhibitor project, dose response (AID 1902);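 note: lower survival reflects blocked streptokinase promoter driving kanamycin resistance gene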
row,SMILES,EC50
1,CC(C)(C)OC(=O)[C@H](Cc1ccccc1)NC(=O)c1[nH]cnc1C(=O)Nc1cccc(Cl)c1,2.4 µM
2,c1cn2c(NC3CCCCC3)c(-c3ccc(SC4CCCCC4)cc3)nc2cn1,1.97 µM
3,O=C(NNC(=O)c1cc(-c2ccccc2)nc2ccccc12)Nc1cccc(Cl)c1,3.87 µM
4,Cc1cc(C)c(C)c(OCCCOc2cccc3cccnc23)c1,13.5 µM
5,C=CCn1c(Oc2ccc(C(=O)OC)cc2)nc2c1c(=O)n(C)c(=O)n2C,7.96 µM
6,CC(C)C[C@H](NC(=O)c1nc[nH]c1C(=O)N1CCc2ccccc2C1)C(=O)OCc1ccccc1,9.87 µM
7,COc1ccc(OC)c(NC(=O)NC2CCCc3ccccc32)c1 (centres undefined),> 15 µM (inactive)
8,C/C(=N\Nc1ccc(Cl)c(Cl)c1)c1ccc(-n2ccnc2)cc1,1.86 µM
9,Oc1c(Cl)cc(Cl)c(Cl)c1Cc1c(O)c(Cl)cc(Cl)c1Cl,0.202 µM
10,CCS(=O)(=O)Nc1ccc(-c2cc(-c3ccccc3)c3cc(C)ccc3n2)cc1,4.03 µM
11,OC(CN=c1sc2ccccc2n1CC(O)COc1ccccc1)COc1ccccc1 (centres undefined),6.28 µM
12,O=[N+]([O-])c1ccc(O)c(/C=N/Nc2ncnc3c2cnn3-c2ccccc2)c1,0.742 µM
13,CSCc1cc(N(C)c2ccccc2)nc(-c2ccccn2)n1,0.136 µM
14,CC(C)Sc1cc(N2CCCC2)nc(-c2ccccc2)n1,11.2 µM
15,Cc1nnc(SCC2=C(C(=O)O)N3C(=O)C(NC(=O)c4cccc(F)c4F)C3SC2)s1 (centres undefined),0.269 µM
16,O=C(Oc1cccc2c(O)cccc12)c1ccccc1,> 15 µM (inactive)
17,COc1ccc(NC(=O)CSc2nc3nc(-c4cccs4)cc(C(F)(F)F)c3c(=O)[nH]2)c(OC)c1,7.42 µM
18,O=C(NCc1ccc(C(F)(F)F)cc1)c1ccc2c(c1)S(=O)(=O)c1ccccc1C2=O,> 15 µM (inactive)
19,COc1cnc(-c2ccccn2)nc1Oc1ccccc1,2.03 µM
20,Clc1ccc(-c2ccc(/C=N/Nc3cc(N4CCOCC4)nc(N4CCOCC4)n3)o2)cc1,15.7 µM
21,CCOC(=O)CCC(=O)O[C@H]1[C@H](O[C@@H]2[C@@H](C)[C@H](O[C@H]3C[C@@](C)(OC)[C@@H](O)[C@H](C)O3)[C@@H](C)C(=O)O[C@H](CC)[C@@](C)(O)[C@H](O)[C@@H](C)C(=O)[C@H](C)C[C@@]2(C)O)O[C@H](C)C[C@@H]1N(C)C,< 0.06 µM
22,O=C(CCC(=O)Nc1cc(C(F)(F)F)ccc1Cl)N/N=C\c1cc([N+](=O)[O-])ccc1O,0.658 µM
23,Cc1cc(C)c(NC(=O)c2oc3ccccc3c2COc2ccccc2)c(C)c1,14.8 µM
24,COc1ccccc1-n1cnc2c(c1=O)c1nc3ccccc3nc1n2-c1ccc(C)c(C)c1,9.11 µM
25,Cc1cc(C)c2nc(-c3ccncc3)cc(C(=O)N3CCN(Cc4ccccc4Cl)CC3)c2c1,4.72 µM

row,SMILES,EC50
1,O=C(Nc1nc(-c2ccccn2)cs1)C1CC1,1.33 µM
2,C/C(=N\NC(=O)c1cc(Br)ccc1O)c1ccccn1,< 0.06 µM
3,Cc1cc(C)c2c(n1)sc1c(=O)n(CC(=O)c3ccccc3)cnc12,1.55 µM
4,CCCOc1ccc(/C(O)=C2/C(=O)C(=O)N(c3ccccn3)C2c2ccc(OC)cc2)cc1C (centres undefined),6.28 µM
5,Nc1nc(Nc2ccccc2)nc(NC2CCCCC2)c1[N+](=O)[O-],5.57 µM
6,CCOC(=O)c1nc(Nc2ccc(Nc3ccccc3)cc2)c2ccccc2n1,9.84 µM
7,Cc1cccc(NC(=O)c2nc[nH]c2C(=O)N[C@@H](Cc2ccccc2)C(=O)OC(C)(C)C)c1,1.44 µM
8,CC(C)=CCc1cc([C@@H]2CC(=O)c3ccc(O)c(CC=C(C)C)c3O2)ccc1O,3.63 µM
9,O=C(/C=C/c1ccccc1)NC(=S)NNC(=O)c1ccco1,2.76 µM
10,Cc1ccnc(NC(c2ccsc2)c2ccc3ccc(C)nc3c2O)c1 (centres undefined),11.7 µM
11,Cc1cc2c(cc1C)-c1c(ssc1=Nc1ccc(S(N)(=O)=O)cc1)C(C)(C)N2,11.7 µM
12,CCOc1cc(/C=C\[N+](=O)[O-])ccc1OCC(=O)Nc1ccccc1C,9.44 µM
13,Cc1nn(-c2ccccc2)c(C)c1/C=N/NC(=O)c1cc(-c2ccc(Cl)s2)[nH]n1,5.8 µM
14,O=[N+]([O-])c1c(NCCCO)cc(Sc2nc3ccccc3s2)c2nonc12,2 µM
15,Nc1[nH]n2c(=O)cc(-c3ccccc3)nc2c1N=Nc1ccccc1,1.83 µM
16,CC1CCN(c2nc(-c3ccccc3)cc(C(F)(F)F)n2)CC1,4.58 µM
17,CCN(CC)C(=S)Sc1c(-c2ccccc2)c2cc(Cl)ccc2[nH]c1=O,0.775 µM
18,O=C(NNC(=S)NC(=O)c1cccc([N+](=O)[O-])c1)c1ccc(Br)cc1,2.07 µM
19,COc1ccccc1C(=O)NNC(=S)NC(=O)c1cc(OC)c(OC)c(OC)c1,0.98 µM
20,CC(C)(C)c1ccc(OCC(O)CS(=O)(=O)c2ccccn2)cc1 (centres undefined),> 15 µM (inactive)
21,O=C(Nc1cccc(Cl)c1N1CCCC1)c1cc2ccccc2o1,4.81 µM
22,COc1ccc(Oc2nc(-c3ccccn3)ncc2OC)cc1,1.45 µM
23,CCOc1ccc2nc(N3C(=O)/C(=C/c4ccc(Cl)cc4)NC3=S)sc2c1,1.3 µM
24,CC(C)c1ccc(NC(=O)NC(C)c2ccc3c(c2)OCO3)cc1 (centres undefined),> 15 µM (inactive)
25,Cc1cc(C)c(C(=O)CC(=O)c2ccccc2Cl)c(O)c1,6.76 µM

row,SMILES,EC50
1,CCOC(=O)C1=C(N)Oc2ccc3ccccc3c2C1c1ccc(O)cc1 (centres undefined),5.68 µM
2,COc1ccccc1-c1n[nH]c2c1[C@H](C)CC[C@H]2C(C)C,2.81 µM
3,CCC(=O)N(CCC(Cc1ccccc1)c1ccc2c(c1)OCO2)Cc1ccccc1F (centres undefined),6.5 µM
4,CCOC(=O)C1=C(N)c2ccccc2CC1C1CCCC1 (centres undefined),3.26 µM
5,Oc1c(C=Nc2cccc3cccnc23)sc2ccccc12,3.94 µM
6,O=C(O)CCCNc1cc(N2CCN(C(=O)c3ccco3)CC2)c2noc3c2c1C(=O)c1ccccc1-3,6.02 µM
7,Cc1nn(-c2ccccc2)c2sc(-c3n[nH]c(=S)o3)cc12,3.99 µM
8,O=C(Nc1ccc(OC(F)(F)F)cc1)N1CCN(c2ccnc3cc(Cl)ccc23)CC1,9.37 µM
9,CCN(CC)c1ccc(C=N/C(C#N)=C(\N)C#N)cc1,> 15 µM (inactive)
10,CCCN(CCC)S(=O)(=O)c1ccc(C(=O)Nc2nnc(-c3cc(OC)cc(OC)c3)o2)cc1,0.192 µM
11,Cc1nc(NS(=O)(=O)c2ccc(Cl)s2)c2c3c(sc2n1)CCCC3,3.98 µM
12,O=C(CSc1nnc(CNC(=O)c2ccc(F)cc2)o1)NCc1ccccc1,> 15 µM (inactive)
13,COC(=O)c1cc(-c2ccc(OC)cc2F)nc2nc(SC)[nH]c(=O)c12,2.57 µM
14,N#Cc1c(-c2ccccc2)nc(SCC(=O)N2c3ccccc3Sc3ccccc32)[nH]c1=O,3.87 µM
15,CCc1c(C)c(C#N)c2[nH]c3ccccc3n2c1=S,14.1 µM
16,O=C(/C(=N\Nc1ccc([N+](=O)[O-])cc1)Sc1nnnn1-c1ccccc1)c1ccccc1,5.46 µM
17,COc1ccc(CNC(=O)c2c(C)oc3c2C(=O)c2ccccc2C3=O)cc1,0.81 µM
18,CCOC(=O)[C@@H]1[C@H]2COc3ccccc3[C@H]2N2C(=O)N(c3ccc(C(F)(F)F)cc3)C(=O)[C@]12C,6.08 µM
19,CC1CC(C)CN(c2ncc3c(n2)CC(c2ccccc2Cl)CC3=O)C1 (centres undefined),4.33 µM
20,COc1ccccc1N=Nc1nc(-c2ccccc2)c(-c2ccccc2)[nH]1,1.39 µM
21,CC(C)(C)c1ccc(C(=O)CC(=O)c2cc(Cl)ccc2O)cc1,0.349 µM
22,C/C(=N\NC(=O)c1cccc(Br)c1)c1ccccn1,0.74 µM
23,CC1CCCC(C)N1c1nnc(NC(=O)c2cc(-c3ccc(Br)cc3)on2)s1 (centres undefined),2.79 µM
24,Cc1nn(-c2ccccc2)c(C)c1/C=N/NC(=O)c1cc(-c2cccc3ccccc23)n[nH]1,6.54 µM
